Experimental data published in patent US11000505B2 (priority 2010, dated 2021).
In brackets after ≈: the same amount, converted by molar mass. Several values for one entry are separate records, joined by “and”; a condition that tells them apart may be missing. Equal entries are not always repeated.

Tests used:
[1] = Solubility in other solvents; conditions: thermodynamic from solid
pial artery [2] = conditions: pig, in vivo
ERK = assay: CSF ERK activity (pERK/ERK) after HI by ELISA (Example 2); assay type: in vivo, newborn pigs; conditions: 60 min after HI; 10 μg/kg i.v. at 0 or 30 min after HI
Protocol: Newborn pigs (1-5 days old, 1.2-1.5 kg) of both sexes were used in this study. The animal experimental protocol was approved by the Institutional Animal Care and Use Committee of the University of Pennsylvania. As described previously, Isoflurane (1 to 2 minimum alveolar concentration) was initially used for anesthesia induction, followed by α-chloralose (30-50 mg/kg supplemented with 5 mg/kg/hr intravenously) for maintenance of anesthesia. After tracheotomy, the animals were initially ventilated with room air and kept warm with heating pad to maintain the rectal temperature at 37-39° C. Bilateral femoral arteries were catheterized to monitor the blood pressure, blood gas tensions and pH. The femoral vein was catheterized for medication administration. A closed cranial window, consisting of a steel ring with a glass cover slip, connecting to 3 ports, was placed for direct pial artery visualization and diameter measurement. Small pial arteries (120 to 160 μm) and arterioles (50 to 70 μm) were identified under a microscope, visualized on a monitor connected to the microscope, and measured via a video microscaler (model VPA 550, For-A-Corp., Los Angeles, Calif.). […]
ERK activity were then determined from frozen CSF samples described above. The levels of pERK and ERK were measured by ELISA kits (Enzo Life Sciences International, Inc., Plymouth Meeting, Pa.).

pial artery [3] = assay type: in vivo, newborn pigs
[4] = system: neonatal mouse hypoxia model; assay: Neonatal mouse hypoxia model: mortality, development, neurobehavior (Example 5); assay type: in vivo, C57BL/6J mice
Excerpt: The protocol was approved by the Institutional Animal Care and Use Committee (IACUC) of the University of Pennsylvania and carried out in accordance with National Institutes of Health guidelines for the use of animals. C57BL/6J mice were purchased from The Jackson Laboratory (Bar Harbor, Me.) and inbreed pups were used for subsequent experiments. Pups were housed under a 12-hour light/dark cycle after birth with free access to food and water throughout the study. Pups from different litters were divided into 3 groups randomly. Pups in the control group (n=11) received i.p. injection of 17% dimethyl sulfoxide (DMSO) without hypoxia insult; the hypoxia group (n=46) received i.p. injection of 17% DMSO and hypoxia insult; SA group (n=26) received i.p. injection of 0.5 mg/kg SA in 17% DMSO and hypoxia insult. Pups of low weight (<1.2 g) were excluded from the study.
The hypoxic insult was induced on postnatal day 1. After i.p. injections, pups were put into a glass chamber in a water bath where the temperature was maintained at 37° C. The chamber was tightly closed and filled with 8% oxygen with balanced nitrogen. Following 120 minutes of hypoxic gas exposure, the chamber was opened and the pups were exposed to the air. Chest compressions and limb stretches were performed for up to 20 minutes to regain spontaneous breathing. The pups that successfully regained spontaneous breathing were then returned to their mothers after recovery for 30 minutes.
The neonate mouse will be considered as non-survival if no spontaneous breathing can be restored for 20 min resuscitation immediately after anoxic insult. The mortality rate will be calculated as: […]=(number of mice in a group-number of non-survival)/number of mice in a group.
From postnatal day 2 to postnatal day 21, the pups were weighed and motor behavior observation was performed every day. Pups were observed individually in a plastic testing box. Each of the following behaviors was recorded for 3 minutes: crawling, walking, running, head point and sniffing, sitting, rearing and eye opening. After the observation, placing reflex, cliff aversion, negative geotaxis, righting response and forelimb grasping testing were performed. The first appearance of the behavior or reflex continued for two consecutive days was recorded.
The open field test was performed to gauge locomotor activity on postnatal day 21 at which the mouse was considered juvenile. Mice were individually placed in a 41 cm (L)×41 cm (W)×30 cm (H) plastic box. The “central area” was defined as a 20.5 cm×20.5 cm square in the center of the box. The rest of the area was defined as the “peripheral area” (see FIG. 25A). The time each mouse spent on exploring the central and periphery parts and the number of rearing behaviors in each respective area were recorded for the first 5 minutes and 30 minutes.
At the age of 10-11 weeks, all mice were tested in several behavioral tasks in the order of: zero mazes, barnes maze and fear conditioning. These tasks were performed to examine the basal anxiety level, spontaneous locomotor activity, motor learning, spatial learning and associative memory of the mice. The mice were given 5 days for rest between each behavioral test.
“Time in open” measures mice anxiety due to their tendency to avoid open spaces. The anxiety was measured by recording the time spent in the open vs. enclosed space. Increased anxiety correlates to decreased time in the open. Open/Closed transitions measure overall activity. Increased transitions equate to greater activity.
Measures the ability to learn with visual cues. Time to Target measures the time taken to find the target hole in an arena with 19 other holes and several visual cues. The Barnes Maze is easier to set-up and probably less stressful and a valid alternative to the Water Maze to study spatial memory. […]

cGMP = cGMP in CSF by ELISA (Example 1); assay type: in vivo, newborn pigs
[5] = Physical and chemical properties: pKa; conditions: Non-ionizable
[6] = 10 μg/kg i.v. co-administrated with nor-BIN 1 μM topical
[7] = 10 μg/kg i.v. immediately or 30 min after HI, 60 min after HI

Q: For `COC(=O)[C@@H]1C[C@H](OC(C)=O)C(=O)[C@H]2[C@@]1(C)CC[C@H]1C(=O)O[C@H](c3ccoc3)C[C@]21C` [Salvinorin A], which solubility ([1]; 1,2-propanediol, organic solvent or mixture) is on record?
A: Its solubility is 59 µg/mL (≈ 136 µM).

Q: What about the solubility ([1]; 1.25% Polysorbate 80 and […] Solutol HS15, aqueous with cosolvent or surfactant or cyclodextrin) of the same compound?
A: Its solubility is 25 µg/mL (≈ 57.8 µM).

Q: And the solubility ([1]; 2-propanol, organic solvent or mixture)?
A: Its solubility is 22 µg/mL (≈ 50.9 µM).

Q: What about the solubility ([1]; 5% Solutol HS15, aqueous with cosolvent or surfactant or cyclodextrin) of the same compound?
A: Its solubility is 26 µg/mL (≈ 60.1 µM).

Q: And the solubility ([1]; 5% Vitamin E TPGS, aqueous with cosolvent or surfactant or cyclodextrin)?
A: Its solubility is 45 µg/mL (≈ 104 µM).

Q: What about the solubility ([1]; 10% Tetraglycol, aqueous with cosolvent or surfactant or cyclodextrin) of the same compound?
A: The solubility was under 2 µg/mL.

Q: What about the solubility ([1]; 10% bile salts, aqueous with cosolvent or surfactant or cyclodextrin) of the same compound?
A: Its solubility is under 2 µg/mL.

Q: And the solubility ([1]; DMSO, organic solvent or mixture)?
A: The solubility was over 1000 µg/mL.

Q: And the solubility ([1]; N,N-dimethylacetamide, organic solvent or mixture)?
A: Its solubility is over 5000 µg/mL.

Q: What about the solubility ([1]; N-methylpyrolidinone, organic solvent or mixture) of the same compound?
A: The solubility was over 10000 µg/mL.

Q: And the solubility ([1]; […] Polysorbate 80, aqueous with cosolvent or surfactant or cyclodextrin)?
A: The solubility was under 2 µg/mL.

Q: And the solubility ([1]; ethanol, organic solvent or mixture)?
A: Its solubility is over 1000 µg/mL.

Q: What about the solubility ([1]; glyceryl monocaprylate, oil or lipid) of the same compound?
A: Its solubility is under 2 µg/mL.

Q: What about the solubility ([1]; water) of the same compound?
A: The solubility was under 2 µg/mL.

Q: And the “blood pressure changes during administration” value (pial artery [2])?
A: Its value is “No significant blood pressure changes”.

Q: What about the “dilation of constricted pial arteries” value (pial artery [2]) of the same compound?
A: The value was “dilated pial arteries under elevated tone conditions”.

Q: What about the “dilation of pial artery” value (pial artery [2]) of the same compound?
A: Its value is “dose dependently (10 nM, 1 μM) dilated the pial artery”.

Q: What about the “dilation response in presence of L-NNA” value (pial artery [2]) of the same compound?
A: Its value is “abolished by L-NNA”.

Q: And the “dilation response in presence of glibenclamide” value (pial artery [2])?
A: The value was “blocked the dilation effects of salvinorin A”.

Q: What about the “dilation response in presence of naloxone” value (pial artery [2]) of the same compound?
A: Its value is “blocked the dilation effects”.

Q: And the “dilation response in presence of norbinaltorphimine” value (pial artery [2])?
A: The value was “blocked the dilation effects”.

Q: And the “dilation response in presence of sulpiride” value (pial artery [2])?
A: The value was “had no effect on the dilation response”.

Q: And the “dilation with repeated administration” value (pial artery [2])?
A: Its value is “sustained dilation effects was observed”.

Q: And the “CSF ERK activity (pERK/ERK)” value (ERK)?
A: Its value is “reduced to the baseline level”.

Q: What about the “pial artery dilation response to hypercapnia after HI with nor-BIN” value (pial artery [3]; [6]) of the same compound?
A: Its value is “abolished completely”.

Q: And the “pial artery dilation response to hypotension after HI with nor-BIN” value (pial artery [3]; [6])?
A: Its value is “abolished”.

Q: What about the “pial artery dilation response to hypercapnia after HI” value (pial artery [3]; [7]) of the same compound?
A: The value was “preserved the dilation responses of pial artery to hypercapnia”.

Q: And the “pial artery dilation response to hypotension after HI” value (pial artery [3]; [7])?
A: Its value is “preserved the dilation responses of pial artery to hypotension”.

Q: And the mortality rate ([4]; 0.5 mg/kg i.p. before 120 min hypoxia (8% oxygen), postnatal day 1, hypoxia group 70%)?
A: Its mortality rate is 38.5%.

Q: And the “delayed appearance of forelimb grasping, cliff aversion, righting response and eye opening” value ([4]; 0.5 mg/kg i.p. before hypoxia)?
A: The value was “prevented these delays”.

Q: What about the “pups survived after HI injury” value ([4]; 0.5 mg/kg i.p. before hypoxia) of the same compound?
A: The value was 16 out of 26.

Q: What about the “body weight difference among groups” value ([4]; P7, P14 and P21) of the same compound?
A: Its value is “no significant difference was observed among groups”.

Q: What about the “time in the central area, open field testing” value ([4]; P21) of the same compound?
A: Its value is “not statistically significant”.

Q: And the rearing test ([4]; P21, first 5 minutes and 30 minutes)?
A: The rearing test was “impairment was not observed”.

Q: And the “Barnes maze spatial memory” value ([4]; age 10-11 weeks)?
A: Its value is “no significant difference among groups”.

Q: And the “elevated zero maze: time in open arm and open/closed transitions, SA vs hypoxia” value ([4]; age 10-11 weeks)?
A: The value was “no significant differences”.

Q: And the fear conditioning ([4]; age 10-11 weeks)?
A: Its fear conditioning is “no significant differences were observed among groups”.

Q: And the “first appearance of rearing without support” value ([4]; hypoxia 19.86±0.29, control 18.18±0.44, mean±SEM, listed as SA)?
A: Its value is 18.69 ± 0.38 days and 18.69 ± 0.3843 days.

Q: And the “other developmental parameters (crawling, walking, running, head point and sniffing, sitting, rearing with support, negative geotaxis, placing reflex)” value ([4]; mouse, in vivo)?
A: The value was “no statistical significance”.

Q: What about the “body weight vs hypoxia group” value ([4]; postnatal day 2 and day 3) of the same compound?
A: The value was “increased body weight”.

Q: And the “cGMP in CSF” value (cGMP; 10 min after administration)?
A: The value was “elevated cGMP in CSF”.

Q: What about the “cGMP in CSF in presence of L-NNA” value (cGMP; L-NNA pretreatment) of the same compound?
A: Its value is “L-NNA blocked the elevation of the cGMP”.

Q: What about the “cGMP in CSF in presence of norbinaltorphimine” value (cGMP; norbinaltorphimine pretreatment, 10 nM and 1 μM) of the same compound?
A: Its value is “Norbinaltorphimine blocked the elevation of cGMP”.

Q: What about the pKa [5] of the same compound?
A: Its pKa is “None”.
